{"source": "ChEMBL document CHEMBL5505975", "about": "“Design, synthesis and biological evaluation of CDC20 inhibitors for treatment of triple-negative breast cancer” (Eur J Med Chem, 2024)", "key": {"[1]": {"tested_on": "MDA-MB-468", "assay": "Antiproliferative activity against human MDA-MB-468 cells assessed as reduction in cell viability incubated for 96 hrs by MTT assay", "conditions": "MDA-MB-468, 96 h"}, "[2]": {"tested_on": "MDA-MB-231", "assay": "Cell cycle arrest in human MDA-MB-231 cells assessed as S phase cells at 20 uM incubated for 24 hrs by PI staining based flow cytometric analysis (reference value: 28.7%)", "format": "functional"}, "[3]": {"tested_on": "MDA-MB-231", "assay": "Cell cycle arrest in human MDA-MB-231 cells assessed as G2 phase cells at 20 uM incubated for 24 hrs by PI staining based flow cytometric analysis (reference value: 14.6%)", "format": "functional"}, "[4]": {"tested_on": "MDA-MB-231", "assay": "Cell cycle arrest in human MDA-MB-231 cells assessed as S phase cells at 20 uM incubated for 48 hrs by PI staining based flow cytometric analysis (reference value: 28.7%)", "format": "functional"}, "[5]": {"tested_on": "MDA-MB-231", "assay": "Cell cycle arrest in human MDA-MB-231 cells assessed as S phase cells at 20 uM incubated for 72 hrs by PI staining based flow cytometric analysis (reference value: 28.7%)", "format": "functional"}, "[6]": {"tested_on": "MDA-MB-231", "assay": "Cell cycle arrest in human MDA-MB-231 cells assessed as G2 phase cells at 20 uM incubated for 72 hrs by PI staining based flow cytometric analysis (reference value: 14.6%)", "format": "functional"}, "[7]": {"tested_on": "MDA-MB-231", "assay": "Cell cycle arrest in human MDA-MB-231 cells assessed as G1 phase cells at 20 uM incubated for 48 hrs by PI staining based flow cytometric analysis (reference value: 76.7%)", "format": "functional"}, "[8]": {"tested_on": "MDA-MB-231", "assay": "Cell cycle arrest in human MDA-MB-231 cells assessed as G2 phase cells at 20 uM incubated for 48 hrs by PI staining based flow cytometric analysis (reference value: 7.3%)", "format": "functional"}, "[9]": {"tested_on": "MDA-MB-231", "assay": "Antimigratory activity in human MDA-MB-231 cells assessed as reduction in migration ability incubated for 24 hrs by wound healing assay", "format": "functional, cell-based", "conditions": "dose 2.5-10 µM"}, "[10]": {"tested_on": "MDA-MB-231", "assay": "Induction of autophagy in human MDA-MB-231 cells assessed as appearance of ring shaped aggregates at 5 to 20 uM incubated for 48 hrs by DAPI staining based immunofluorescence analysis", "format": "functional, cell-based", "conditions": "dose 5-20 µM"}, "[11]": {"tested_on": "MDA-MB-231", "assay": "Induction of autophagy in human MDA-MB-231 cells assessed as increase in beclin-1 expression level incubated for 48 hrs by Western blot analysis", "format": "functional, cell-based", "conditions": "dose 5-20 µM"}, "[12]": {"tested_on": "MDA-MB-231", "assay": "Induction of apoptosis in human MDA-MB-231 cells assessed as early apoptotic cells at 2.5 uM incubated for 48 hrs by Annexin V-FITC/PI staining based flow cytometric analysis (reference value: 2.25 %)", "format": "functional"}, "[13]": {"tested_on": "MDA-MB-231", "assay": "Induction of apoptosis in human MDA-MB-231 cells assessed as necrotic cells at 10 uM incubated for 48 hrs by Annexin V-FITC/PI staining based flow cytometric analysis (reference value: 1.63%)", "format": "functional"}, "[14]": {"tested_on": "MDA-MB-231", "assay": "Induction of autophagy in human MDA-MB-231 cells assessed as autophagic lysosomes at 10 uM incubated for 48 hrs by transmission electron microscopic analysis", "format": "functional, cell-based"}, "[15]": {"assay": "Toxicity in female BALB/C mouse implanted with mouse 4T1 cells assessed as change in serum CREA level at 20 to 50 mg/kg, po administered every two days for 21 days", "format": "organism-based", "conditions": "in vivo, 504 h, dose 20-50 mg/kg, time 21 day"}, "[16]": {"assay": "Toxicity in female BALB/C mouse implanted with mouse 4T1 cells assessed as change in serum AST level at 20 to 50 mg/kg, iv administered every two days for 21 days", "format": "organism-based", "conditions": "in vivo, 504 h, dose 20-50 mg/kg, time 21 day"}, "[17]": {"assay": "Toxicity in female BALB/C mouse implanted with mouse 4T1 cells assessed as change in serum BUN level at 20 to 50 mg/kg, iv administered every two days for 21 days", "format": "organism-based", "conditions": "in vivo, 504 h, dose 20-50 mg/kg, time 21 day"}, "[18]": {"assay": "Toxicity in female BALB/C mouse implanted with mouse 4T1 cells assessed as change in serum CREA level at 20 to 50 mg/kg, iv administered every two days for 21 days", "format": "organism-based", "conditions": "in vivo, 504 h, dose 20-50 mg/kg, time 21 day"}, "[19]": {"assay": "Toxicity in female BALB/C mouse implanted with mouse 4T1 cells assessed as change in number of platelets at 20 to 50 mg/kg, iv administered every two days for 21 days by routine blood analysis", "format": "organism-based", "conditions": "in vivo, 504 h, dose 20-50 mg/kg, time 21 day"}, "[20]": {"assay": "Toxicity in female BALB/C mouse implanted with mouse 4T1 cells assessed as effect on lymphocytes at 20 to 50 mg/kg, iv administered every two days for 21 days by routine blood analysis", "format": "organism-based", "conditions": "in vivo, 504 h, dose 20-50 mg/kg, time 21 day"}}, "note": "The source made the active and inactive calls. The rule behind the calls is not given here.", "data": [{"smiles": "CCC(=O)NC(n1cnc2c(Nc3cc(OC)c(OC)c(OC)c3)nc(N)nc21)C(Cl)(Cl)Cl", "note": "(stereo not given)", "values": [{"measurement": "IC50", "setting": "[1]", "result": 7.24, "unit": "µM"}, {"measurement": "Activity", "setting": "[2]", "result": 27.6, "unit": "%"}, {"measurement": "Activity", "setting": "[3]", "result": 40.1, "unit": "%"}, {"measurement": "Activity", "setting": "[4]", "result": 13.3, "unit": "%"}, {"measurement": "Activity", "setting": "[5]", "result": 12.5, "unit": "%"}, {"measurement": "Activity", "setting": "[6]", "result": 51.1, "unit": "%"}, {"measurement": "Activity", "setting": "[7]", "result": 59, "unit": "%"}, {"measurement": "Activity", "setting": "[8]", "result": 29.4, "unit": "%"}, {"measurement": "Activity", "setting": "[9]", "result": "Dose-Dependent Effect"}, {"measurement": "Activity", "setting": "[10]", "result": "Active"}, {"measurement": "Activity", "setting": "[11]", "result": "Dose-Dependent Effect"}, {"measurement": "Activity", "setting": "[12]", "result": 1.34, "unit": "%"}, {"measurement": "Activity", "setting": "[13]", "result": 1.14, "unit": "%"}, {"measurement": "Activity", "setting": "[14]", "result": "Active"}, {"measurement": "Activity", "setting": "[15]", "result": "Non-Toxic"}, {"measurement": "Activity", "setting": "[16]", "result": "Non-Toxic"}, {"measurement": "Activity", "setting": "[17]", "result": "Non-Toxic"}, {"measurement": "Activity", "setting": "[18]", "result": "Non-Toxic"}, {"measurement": "Activity", "setting": "[19]", "result": "Non-Toxic"}, {"measurement": "Activity", "setting": "[20]", "result": "Non-Toxic"}]}]}
